Assay results as given in publication PMC9496321, “6-Furopyridine Hexamethylene Amiloride Is a Non-Selective P2X7 Receptor Antagonist” (Biomolecules, 2022).

Experiments:
[1] = molecular target: T1, hP2X7 (Homo sapiens, UniProt Q99572); test: Fura-2AM Ca2+ response assay in HEK-hP2X7 cells; type: cell-based; conditions: for maximum ATP response, Ca2+: increasing ATP; for EC50: EC50 of ATP
T1 construct: expressed in transfected cells; host or cells: HEK293 cells, stably transfected (HEK-hP2X7)
T1 sequence (Q99572 1-595): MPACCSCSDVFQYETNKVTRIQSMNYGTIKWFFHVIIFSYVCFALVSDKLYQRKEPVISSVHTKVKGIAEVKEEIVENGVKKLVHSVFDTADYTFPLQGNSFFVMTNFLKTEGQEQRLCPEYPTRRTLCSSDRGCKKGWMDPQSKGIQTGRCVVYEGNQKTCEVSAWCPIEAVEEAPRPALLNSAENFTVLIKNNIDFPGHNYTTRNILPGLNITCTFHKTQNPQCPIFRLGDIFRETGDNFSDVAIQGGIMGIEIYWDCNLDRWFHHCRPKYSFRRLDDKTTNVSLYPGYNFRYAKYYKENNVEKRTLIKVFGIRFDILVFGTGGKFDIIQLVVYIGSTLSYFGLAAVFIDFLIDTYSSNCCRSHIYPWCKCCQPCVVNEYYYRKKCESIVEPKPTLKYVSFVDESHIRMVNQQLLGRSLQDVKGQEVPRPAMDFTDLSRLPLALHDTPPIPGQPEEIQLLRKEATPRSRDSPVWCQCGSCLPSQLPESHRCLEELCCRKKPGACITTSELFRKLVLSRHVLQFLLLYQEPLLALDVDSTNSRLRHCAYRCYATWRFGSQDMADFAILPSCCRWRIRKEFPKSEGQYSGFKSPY

[2] = tested on: P2X7-mediated CD23 shedding; test: CD23 shedding assay in RPMI8226 cells; type: cell-based, human
Protocol: CD23 shedding from RPMI8226 cells was conducted as described, except using LDM. Briefly, 1 × 10^6 cells in LDM were added to individual tubes and pre-incubated in the absence or presence of compound (or vehicle) (37 °C, 15 min). […] Cells were stained in the absence or presence of anti-CD23 mAb with 7AAD (on ice, 30 min, dark), washed once with D-PBS and data were collected using an LSR Fortessa X-20 flow cytometer. CD23 MFI on live cells was determined using FlowJo, with CD23 expression defined as the difference in MFI between cells stained in the presence or absence of anti-CD23 mAb. ATP-induced shedding was normalised to the maximal ATP-induced response in each experiment.

[3] = molecular target: T2, mP2X7 (Mus musculus, UniProt Q9Z1M0); test: ATP-induced ethidium+ uptake in transfected HEK-mP2X7 cells; type: cell-based, murine
T2 construct: expressed in transfected cells; host or cells: HEK293 cells, transient transfection, GFP+ cells gated
T2 sequence (Q9Z1M0 1-595): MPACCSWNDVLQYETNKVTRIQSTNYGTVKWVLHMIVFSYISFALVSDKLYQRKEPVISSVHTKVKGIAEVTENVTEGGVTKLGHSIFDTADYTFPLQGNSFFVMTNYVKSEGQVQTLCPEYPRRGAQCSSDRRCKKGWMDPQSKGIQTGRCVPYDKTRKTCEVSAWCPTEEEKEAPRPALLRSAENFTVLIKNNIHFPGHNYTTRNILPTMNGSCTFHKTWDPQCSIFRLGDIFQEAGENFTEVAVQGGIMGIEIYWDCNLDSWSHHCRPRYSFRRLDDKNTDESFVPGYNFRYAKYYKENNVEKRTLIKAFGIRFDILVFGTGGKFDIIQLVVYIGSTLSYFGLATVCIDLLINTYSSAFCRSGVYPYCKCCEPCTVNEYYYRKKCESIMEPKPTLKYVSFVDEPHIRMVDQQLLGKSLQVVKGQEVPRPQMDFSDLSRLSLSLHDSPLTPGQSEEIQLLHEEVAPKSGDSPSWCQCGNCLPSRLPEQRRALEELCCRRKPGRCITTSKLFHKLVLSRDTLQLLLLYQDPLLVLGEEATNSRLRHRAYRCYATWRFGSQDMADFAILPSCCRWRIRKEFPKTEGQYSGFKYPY
Protocol: HEK293 cells were plated at 3.5 × 10^5 cells/well in 2 mL of complete DMEM/F12 medium and incubated (37 °C, 95% air/5% CO2, overnight). Cells were transfected with mP2X7-GFP (HEK-mP2X7), cP2X7-GFP (HEK-cP2X7) or hP2X4-EmGFP (HEK-hP2X4) plasmids, or mock transfected with an equivalent volume of sterile Milli-Q water (Merck Millipore, Burlington, NJ, USA), using Lipofectamine 3000 according to the manufacturer’s instructions. Cells were used for assays 48 h post-transfection. To determine transfection efficiency, cells were washed twice with D-PBS and data collected with an LSR Fortessa X-20 flow cytometer (BD Biosciences). The proportion of GFP positive cells was determined using FlowJo software v8.7.1 (BD Biosciences).
ATP-mediated uptake assays were conducted as described with either ethidium bromide or YO-PRO-1 iodide. Briefly, RPMI8226, HEK-hP2X7, HEK-mP2X7, HEK-cP2X7 or cryopreserved human peripheral blood mononuclear cells (PBMCs) were washed thrice with LDM (300× g, 5 min), resuspended in LDM and 1 × 10^6 cells were added to individual tubes. Cells were pre-incubated in the absence of compound (37 °C, 5 min) or in the presence of compound or vehicle (DMSO) (37 °C, 15 min) as indicated. […] An equal volume of ice-cold Mg^2+ stop solution was added and cells centrifuged (300× g, 5 min). Cells were washed twice in LDM (300× g, 5 min), resuspended and data were collected with an LSR Fortessa X-20 flow cytometer. MFI of ethidium^+ or YO-PRO-1^2+ was determined using FlowJo.

maximum ATP response, Ca2+ ([1]; 0.3 μM 6-FPHMA) [%] | maximum ATP response, Ca2+ ([1]; 3 μM 6-FPHMA) [%] | maximum ATP response, Ca2+ ([1]; 30 μM 6-FPHMA) [%] | blockade of hP2X7-mediated Ca2+ responses ([1]; 30 μM compound, 720 μM ATP) [%] | mode of inhibition ([1]; Ca2+ response, HEK-hP2X7 cells) | IC50 ([1]; read-out: IC50, hP2X7-mediated Ca2+ responses) [µM] | IC50 ([2]; Homo sapiens, RPMI-8226, read-out: IC50, ATP-induced CD23 shedding) [µM] | blockade of mP2X7-mediated dye uptake ([3]; 100 μM compound, 360 μM ATP) [%] | activity against murine P2X7 relative to hP2X7 and cP2X7 ([3]; comparison of IC50 values) | IC50 ([3]; read-out: IC50, mP2X7-mediated dye uptake) [µM] | SMILES | blockade of ATP-induced CD23 shedding ([2]; 30 μM compound, 200 μM ATP) [%] | EC50 ([1]; Ca2+ response, HEK-hP2X7 cells, no antagonist (Figure 2F), AUC 100-180 s) [µM] | EC50 ([1]; Ca2+ response, in presence of 0.3 μM 6-FPHMA) [µM] | EC50 ([1]; Ca2+ response, in presence of 3 μM 6-FPHMA) [µM] | EC50 ([1]; Ca2+ response, in presence of 30 μM 6-FPHMA) [µM] | EC50 ([1]; Ca2+ response, pre-incubated with DMSO vehicle (Figure 2H)) [µM] | EC50 ([2]; Homo sapiens, RPMI-8226, read-out: EC50 of ATP, CD23 shedding, RPMI8226 cells) [µM] | ATP concentration giving maximal CD23 shedding ([2]; RPMI8226 cells) [µM] | EC50 ([3]; GFP+ HEK-mP2X7 cells) [µM] | ATP concentration giving maximum response, ethidium+ uptake ([3]; HEK-mP2X7 cells) [mM]
54 ± 7 | 43 ± 6 | 5 ± 1 | 100 | non-competitive | 0.46 ± 0.14 | 2.3 ± 0.5 | 96 | ten-fold less active | 23 ± 2.4 | N=C(N)NC(=O)c1nc(-c2cc3cnccc3o2)c(N2CCCCCC2)nc1N [6-FPHMA, 6-furopyridine-substituted 5-(N,N-hexamethylene) amiloride] | 97 | – | – | – | – | – | – | – | – | –
– | – | – | – | – | – | – | – | – | – | Nc1ncnc2c1ncn2[C@@H]1O[C@H](COP(=O)(O)OP(=O)(O)OP(=O)(O)O)[C@@H](O)[C@H]1O [ATP, adenosine 5′-triphosphate] | – | 722 ± 76 | 526 ± 131 | 857 ± 317 | 691 ± 151 | 526 ± 127 | 112 ± 28 | 200 | 364 ± 48 | 2
